Data: ChEMBL document CHEMBL5042525, “Activation of E6AP/UBE3A-Mediated Protein Ubiquitination and Degradation Pathways by a Cyclic γ-AA Peptide” (J Med Chem, 2022)
Activity calls are given as the source filed them. No cut-off for these calls is given here.

Legend:
Homo sapiens [1] = species on record: Homo sapiens; assay: Activation of wild type N-terminal Flag-tagged E6AP HECT domain (unknown origin) self-ubiquitination assessed as increase in formation of polyubiquitinated HECT in presence of wild type HA-tagged UB at 10 to 100 uM preincubated for 30 mins followed by UB addition incubated for 2 hrs by SDS PAGE based Western blot analysis; details: dose 10-100 µM, time 150.0 min
Homo sapiens [2] = species on record: Homo sapiens; assay: Activation of wild type N-terminal Flag-tagged E6AP (unknown origin) mediated ubiquitination of p53 substrate at 10 to 100 uM in presence of […] E6 and Uba1/Ubch7 preincubated for 30 min followed by UB addition incubated for 2 hrs by SDS PAGE based Western blot analysis; details: dose 10-100 µM, time 150.0 min
Homo sapiens [3] = species on record: Homo sapiens; assay: Activation of full length E6AP (unknown origin) self-ubiquitination at 100 uM preincubated for 30 mins followed by UB addition incubated for 2 hrs by SDS PAGE based Western blot analysis
[4] = Binding affinity to recombinant E6AP HECT domain (unknown origin) expressed in BL21 cells by fluorescence polarization assay; design: species or system Homo sapiens
Homo sapiens [5] = species on record: Homo sapiens; assay: Activation of wild type N-terminal Flag-tagged E6AP (unknown origin) mediated UbxD8 substrate ubiquitination in presence of Uba1/Ubch7 at 10 to 100 uM preincubated for 30 mins followed by UB addition incubated for 2 hrs by SDS PAGE based Western blot analysis; details: dose 10-100 µM, time 2.5 hrs
HEK293T [6] = assay: Activation of E6AP mediated HHR23A degradation in HEK293T cells at 50 uM preincubated for 14 hrs followed by CHX addition by cycloheximide chase assay; assay type: cell-based; details: Homo sapiens, filed as activator
[7] = Stability of the compound in ammonium bicarbonate buffer at pH 7.8 assessed as pronase (unknown origin)-mediated drug degradation for 24 hrs by HPLC-MS analysis; assay type: ADME; details: human, pH 7.8, 24 h
HEK293T [8] = assay: Activation of E6AP mediated UbxD8 degradation in HEK293T cells at 50 uM preincubated for 14 hrs followed by CHX addition by cycloheximide chase assay; assay type: cell-based; details: Homo sapiens, filed as activator
Homo sapiens [9] = species on record: Homo sapiens; assay: Activation of E6AP (unknown origin) self-ubiquination in presence of UbcH7 at 5 uM preincubated for 30 mins followed by UB addition incubated for 2 hrs by SDS PAGE based Western blot analysis; details: filed as activator, time 2.5 hrs
Homo sapiens [10] = species on record: Homo sapiens; assay: Activation of E6AP (unknown origin) self-ubiquination in presence of Uba1 at 5 uM preincubated for 30 mins followed by UB addition incubated for 2 hrs by SDS PAGE based Western blot analysis; details: filed as activator, time 2.5 hrs
HEK293T [11] = assay: Activation of E6AP (unknown origin) mediated HHR23A substrate ubiquitination in HEK293T cells at 25 to 50 uM preincubated for 14 hrs followed by addition of MG132 incubated for 12 hrs by SDS PAGE based Western blot analysis; assay type: cell-based; details: Homo sapiens, filed as activator, dose 25-50 µM, time 26.0 hrs
Homo sapiens [12] = species on record: Homo sapiens; assay: Activation of wild type N-terminal Flag-tagged E6AP HECT domain (unknown origin) self-ubiquitination in presence of wild type HA-tagged UB at 5 uM preincubated for 30 mins followed by UB addition incubated for 2 hrs by SDS PAGE based Western blot analysis; details: filed as activator, time 150.0 min
Homo sapiens [13] = species on record: Homo sapiens; assay: Activation of E6AP (unknown origin) self-ubiquination in presence of wild type HA-tagged UB at 5 uM preincubated for 30 mins followed by UB addition incubated for 2 hrs by SDS PAGE based Western blot analysis; details: filed as activator, time 150.0 min
HEK293T [14] = assay: Activation of E6AP mediated HHR23A degradation in HEK293T cells at 1 to 5 uM preincubated for 14 hrs followed by CHX addition by cycloheximide chase assay; assay type: cell-based; details: Homo sapiens, filed as activator, dose 1-5 µM
Homo sapiens [15] = species on record: Homo sapiens; assay: Activation of wild type N-terminal Flag-tagged E6AP (unknown origin) mediated UbxD8 substrate ubiquitination in presence of Uba1/Ubch7 preincubated for 30 mins followed by UB addition incubated for 2 hrs by SDS PAGE based Western blot analysis; details: filed as activator, time 2.5 hrs
HEK293T [16] = assay: Activation of E6AP (unknown origin) in HEK293T cells assessed as increase in ubiquitination level of UbxD8 substrate at 25 to 50 uM preincubated for 14 hrs followed by addition of MG132 incubated for 12 hrs by SDS PAGE based Western blot analysis; assay type: cell-based; details: Homo sapiens, filed as activator, dose 25-50 µM, time 26.0 hrs
Homo sapiens [17] = species on record: Homo sapiens; assay: Activation of wild type N-terminal Flag-tagged E6AP (unknown origin) mediated beta-catenin substrate ubiquitination in presence of Uba1/Ubch7 preincubated for 30 mins followed by UB addition incubated for 2 hrs by SDS PAGE based Western blot analysis; details: filed as activator, dose 1-100 µM, time 150.0 min
Homo sapiens [18] = species on record: Homo sapiens; assay: Activation of wild type N-terminal Flag-tagged E6AP HECT domain (unknown origin) self-ubiquitination in presence of Uba1 at 5 uM preincubated for 30 mins followed by UB addition incubated for 2 hrs by SDS PAGE based Western blot analysis; details: filed as activator, time 2.5 hrs
[19] = Stability of the compound in human serum for 24 hrs by HPLC-MS analysis; assay type: ADME, cell-free
Homo sapiens [20] = species on record: Homo sapiens; assay: Activation of wild type N-terminal Flag-tagged E6AP (unknown origin) mediated HHR23A substrate ubiquitination in presence of Uba1/Ubch7 preincubated for 30 mins followed by UB addition incubated for 2 hrs by SDS PAGE based Western blot analysis; details: filed as activator, dose 1-100 µM, time 150.0 min
Homo sapiens [21] = species on record: Homo sapiens; assay: Activation of wild type N-terminal Flag-tagged E6AP HECT domain (unknown origin) self-ubiquitination in presence of UbcH7 at 5 uM preincubated for 30 mins followed by UB addition incubated for 2 hrs by SDS PAGE based Western blot analysis; details: filed as activator, time 2.5 hrs

| Structure (SMILES) | Activity (Homo sapiens [1]) | Activity (Homo sapiens [2]) | Activity (Homo sapiens [3]) | Activity (Homo sapiens [5]) | Kd ([4]; read-out: Kd) | further results |
| --- | --- | --- | --- | --- | --- | --- |
| C[C@H]1CN(C(=O)CCC(=O)O)CC(=O)N[C@@H](Cc2ccccc2)CN(CC(N)=O)C(=O)CCSCc2ccc(cc2)C(=O)N[C@@H](C)CN(C(=O)Cc2ccc3c(c2)OCO3)CC(=O)N[C@@H](CCC(=O)O)CN(C(=O)CC2CC2)CC(=O)N1 | inactive | inactive | inactive | inactive | – | Kd [4]: Not Active |
| CC(C)C[C@H]1CN(C(=O)Cc2ccc3c(c2)OCO3)CC(=O)N[C@@H](CCC(=O)O)CN(C(=O)CCC2CCCCC2)CC(=O)N[C@@H](C)CN(C(=O)CCC(=O)O)CC(=O)N[C@@H](Cc2ccccc2)CN(CC(N)=O)C(=O)CCSCc2ccc(cc2)C(=O)N1 | inactive | inactive | inactive | inactive | – | Kd [4]: Not Active |
| CC(C)C[C@H]1CN(CC(N)=O)C(=O)CCSCc2ccc(cc2)C(=O)N[C@@H](C)CN(C(=O)Cc2ccc3ccccc3c2)CC(=O)N[C@@H](CC(C)C)CN(C(=O)CCc2ccccc2)CC(=O)N[C@@H](Cc2ccccc2)CN(C(=O)Cc2ccc3c(c2)OCO3)CC(=O)N1 | inactive | inactive | inactive | inactive | 187 nM | – |
| CC(C)C[C@H]1CN(CC(N)=O)C(=O)CCSCc2ccc(cc2)C(=O)N[C@@H](Cc2ccccc2)CN(C(=O)Cc2ccc3ccccc3c2)CC(=O)N[C@@H](CC(C)C)CN(C(=O)CCC2CCCCC2)CC(=O)N[C@@H](Cc2ccccc2)CN(C(=O)Cc2ccc3c(c2)OCO3)CC(=O)N1 | inactive | inactive | inactive | inactive | 82.2 nM | – |
| C[C@H]1CN(C(=O)Cc2ccc3c(c2)OCO3)CC(=O)N[C@@H](Cc2ccccc2)CN(C(=O)Cc2ccc3ccccc3c2)CC(=O)N[C@@H](CCC(=O)O)CN(C(=O)CC2CC2)CC(=O)N[C@@H](Cc2ccccc2)CN(CC(N)=O)C(=O)CCSCc2ccc(cc2)C(=O)N1 | inactive | inactive | inactive | inactive | 171 nM | – |
| COc1cc(CC(=O)N2CC(=O)N[C@@H](C)CN(C(=O)Cc3cc(OC)cc(OC)c3)CC(=O)N[C@@H](CC(C)C)CN(CC(N)=O)C(=O)CCSCc3ccc(cc3)C(=O)N[C@@H](Cc3ccccc3)CN(C(=O)Cc3ccc4c(c3)OCO4)CC(=O)N[C@@H](Cc3ccccc3)C2)cc(OC)c1 | inactive | inactive | inactive | inactive | 83.4 nM | – |
| COc1cc(CC(=O)N2CC(=O)N[C@@H](Cc3ccccc3)CN(C(=O)CC3CC3)CC(=O)N[C@@H](CC(C)C)CN(CC(N)=O)C(=O)CCSCc3ccc(cc3)C(=O)N[C@@H](CCCCN)CN(C(=O)Cc3ccc4ccccc4c3)CC(=O)N[C@@H](CC(C)C)C2)cc(OC)c1 | – | inactive | – | – | 218 nM | Activity (HEK293T [6]): Active; Activity (Homo sapiens [1]; filed as activator): Active; Stability [7]: Stable; Activity (Homo sapiens [3]; filed as activator): Active; Activity (HEK293T [8]): Active; Activity (Homo sapiens [9]): Active; Activity (Homo sapiens [10]): Active; Activity (HEK293T [11]): Active; Activity (Homo sapiens [12]): Active; Activity (Homo sapiens [13]): Active; Activity (HEK293T [14]): Active; Activity (Homo sapiens [15]): Dose-Dependent Effect; Activity (HEK293T [16]): Active; Activity (Homo sapiens [17]): Dose-Dependent Effect; Activity (Homo sapiens [5]; filed as activator): Active; Activity (Homo sapiens [18]): Active; Stability [19]: Stable; Activity (Homo sapiens [20]): Dose-Dependent Effect; Activity (Homo sapiens [21]): Active |
| COc1cc(CC(=O)N2CC(=O)N[C@@H](Cc3ccccc3)CN(C(=O)CC3CC3)CC(=O)N[C@@H](CC(C)C)CN(CC(N)=O)C(=O)CCSCc3ccc(cc3)C(=O)N[C@@H](CCC(=O)O)CN(C(=O)Cc3ccc4c(c3)OCO4)CC(=O)N[C@@H](CC(C)C)C2)cc(OC)c1 | inactive | inactive | inactive | inactive | 162 nM | – |
